Literature values as cited in patent publication US10314914B2, “Iodophor composition and methods of use” (Veloce BioPharma, LLC, priority 2015, dated 2019).

Conditions: 50% solution of DMSO in water

In the case of C[C@]12CCC(=O)C=C1CC[C@@H]1[C@@H]2[C@@H](O)C[C@@]2(C)[C@H]1CC[C@]2(O)C(=O)CO [hydrocortisone], the rate of penetration is listed as “markedly enhanced”.
